US8778310B2, “Fluorescent chlorotoxin conjugate and method for intra-operative visualization of cancer” (priority 2005, dated 2014)

Columns and labels:
9L glioma xenografts = experiment: In vivo biophotonic imaging of mice with 9L glioma xenografts; set-up: species or system mouse; conditions: versus control mice without 1,10-phenanthroline
Protocol: All mouse studies were conducted in accordance with IACUC approved protocols. Subcutaneous xenografts were established in nu/nu (nude) mice using 9L, a rat gliosarcoma cell line (ATCC), and RH30, a rhabdomyosarcoma cell line. The xenografts were established using 1 million 9L or RH30 cells suspended in serum free media and matrigel at a 1:1 ratio. Intracranial xenografts were established by stereotaxic injection of 1 million 9L cells suspended in 10 μl PBS into the brain 3 mm lateral and posterior to the bregma. ND2:SmoA1 medulloblastoma mice, TRAMP prostate cancer mice and Apc^1638N intestinal adenoma and adenocarcinoma mice were as previously described. See, Fodde, R., et al., A targeted chain-termination mutation in the mouse Apc gene results in multiple intestinal tumors. Proc. Natl. Acad. Sci. U.S.A., 1994. 91(19): p. 8969-73; Greenberg, N. M., et al., Prostate cancer in a transgenic mouse. Proc. Natl. Acad. Sci. U.S.A., 1995. 92(8): p. […]
CTX:Cy5.5 (0.1-0.2 ml of 10-20 μM) was administered intravenously by tail vein injection. […] Relevant organs and tumors were dissected from some of the animals and fluorescence image were obtained immediately following dissection. In time course experiments, all images were captured using identical system settings and fluorescence emission was normalized to photons per second per centimeter squared per steradian (p/s/cm^2/sr).

9L glioma cells = experiment: In vitro imaging of CTX:Cy5.5 binding to 9L glioma cells (NIR/confocal microscopy); type: cell-based, rat; conditions: pre-incubation with MMP-2 inhibitor
Protocol: 9L/lacZ gliosarcoma cells (ATCC, VA) and primary human foreskin fibroblast (HFF) were maintained in DMEM and RPMI medium both supplemented with 1% sodium pyruvate, 1% streptomycin/penicillin and 10% FBS (Hyclone, UT), respectively. 2×10^5 cells were seeded on sterile cover slips 36 hrs prior to labeling and confocal microscopy. Cells were cultured with 1 ml of CTX:CY5.5 conjugate (1 uM) for 2 hours in a 37° C. humidified incubator maintained at 5% CO2. Cover slips were washed 2 times in cell culture medium and 2 times in PBS buffer. Following this step, cell membranes were stained with 1 μM solution of FM 1-43FX (Molecular Probes, OR) for 20 min in dark at room temperature, washed 2 times in PBS and fixed in 4% paraformaldehyde. Cellular nuclei were stained with 4′,6-diamidino-2-phenylndole (DAPI, Sigma Aldrich, MO).
Confocal images were acquired using a DeltaVision SA3.1 Wide-Field Deconvolution Microscope (Applied Precision, WA) equipped with DAPI, TRITC, and Cy5 filters. Image processing was performed using SoftWoRX (Applied Precision, WA).
To determine whether CTX retained specific binding to glioma cells after conjugation to Cy5.5, we incubated the conjugate with 9L glioma cells and primary fibroblasts and evaluated binding by NIR microscopy. […]

[1] = system: glioma and normal brain histologic sections; experiment: Staining of histologic sections of glioma and normal brain; set-up: species or system human
[2] = type: in vivo, mouse
Protocol: To further assess potential CTX toxicity at doses used for optical imaging, complete necropsy was performed on mice two weeks after exposure to CTX.

[3] = previously reported; cited from earlier work

c1cnc2c(c1)ccc1cccnc12 [1,10-phenanthroline]
Specific binding of CTX:Cy5.5 in mice pre-treated with 1,10-phenanthroline (9L glioma xenografts): six-fold lower
Binding of CTX:Cy5.5 to 9L glioma cells after pre-incubation with 1,10-phenanthroline (9L glioma cells): blocked

Cy5.5
staining of glioma section [1]: does not stain glioma

chlorotoxin [CTX]
laboratory evaluation (electrolytes, blood counts, liver and kidney function) ([2]; doses used for optical imaging): no alteration
toxicity overall ([2]; doses used for optical imaging): no toxicity could be detected
pathologic changes in organs (necropsy) ([2]; doses used for optical imaging, b143: two weeks after exposure): indistinguishable from control mice
open field observation ([2]; injected mice versus control mice): indistinguishable from control mice
locomotor activity in mice [3]: reduce locomotor activity
